ChEMBL document CHEMBL1909046, “DrugMatrix in vitro pharmacology data”

Columns and labels:
[1] = target: 5-hydroxytryptamine receptor 4 (Cavia porcellus, UniProt O70528); type: cell membranes, Dunkin-Hartley, Striatum, Membrane; note: in other assays of this panel Not Active means under 50% inhibition at 10 µM
[2] = DRUGMATRIX: Potassium Channel [KATP] radioligand binding (ligand: [3H] Glyburide); type: cell membranes, Membrane; settings: hit-t15; Not Active = under 50% inhibition at 10 µM
Substance-P receptor = Substance-P receptor (Homo sapiens, UniProt P25103); type: cell membranes, Membrane; settings: cho; note: in other assays of this panel Not Active means under 50% inhibition at 10 µM
Chain of Substance-P receptor (P25103 whole entry): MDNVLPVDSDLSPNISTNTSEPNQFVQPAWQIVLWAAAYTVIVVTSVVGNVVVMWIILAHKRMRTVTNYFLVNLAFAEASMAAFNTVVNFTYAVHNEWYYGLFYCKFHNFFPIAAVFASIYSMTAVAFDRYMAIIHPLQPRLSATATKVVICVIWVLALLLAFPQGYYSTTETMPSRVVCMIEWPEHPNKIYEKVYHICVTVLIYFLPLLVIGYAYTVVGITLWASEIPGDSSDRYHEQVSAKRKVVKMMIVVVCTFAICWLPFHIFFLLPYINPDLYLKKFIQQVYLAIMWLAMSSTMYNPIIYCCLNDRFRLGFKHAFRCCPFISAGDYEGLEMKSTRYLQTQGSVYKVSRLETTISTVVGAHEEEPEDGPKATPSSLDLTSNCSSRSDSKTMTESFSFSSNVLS

[3] = target: T1, C-X-C chemokine receptor type 1 (Homo sapiens, UniProt P25024); note: in other assays of this panel Not Active means under 50% inhibition at 10 µM
T1 sequence (P25024 whole entry): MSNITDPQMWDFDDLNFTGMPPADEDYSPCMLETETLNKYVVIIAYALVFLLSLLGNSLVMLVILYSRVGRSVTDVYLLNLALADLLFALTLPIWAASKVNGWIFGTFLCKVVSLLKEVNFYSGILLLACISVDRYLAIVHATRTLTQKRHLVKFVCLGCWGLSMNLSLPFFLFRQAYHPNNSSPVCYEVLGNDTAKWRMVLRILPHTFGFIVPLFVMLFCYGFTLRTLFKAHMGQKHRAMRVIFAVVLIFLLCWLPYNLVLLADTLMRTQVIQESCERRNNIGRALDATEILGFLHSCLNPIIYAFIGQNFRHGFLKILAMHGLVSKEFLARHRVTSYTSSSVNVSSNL

[4] = target: Mitogen-activated protein kinase 3 (Homo sapiens, UniProt P27361); experiment: DRUGMATRIX: Protein Serine/Threonine Kinase, ERK1 enzyme inhibition (substrate: Myelin Basic Protein); design: species or system Escherichia coli; settings: Not Active = under 50% inhibition at 10 µM
Chain of Mitogen-activated protein kinase 3 (P27361 whole entry): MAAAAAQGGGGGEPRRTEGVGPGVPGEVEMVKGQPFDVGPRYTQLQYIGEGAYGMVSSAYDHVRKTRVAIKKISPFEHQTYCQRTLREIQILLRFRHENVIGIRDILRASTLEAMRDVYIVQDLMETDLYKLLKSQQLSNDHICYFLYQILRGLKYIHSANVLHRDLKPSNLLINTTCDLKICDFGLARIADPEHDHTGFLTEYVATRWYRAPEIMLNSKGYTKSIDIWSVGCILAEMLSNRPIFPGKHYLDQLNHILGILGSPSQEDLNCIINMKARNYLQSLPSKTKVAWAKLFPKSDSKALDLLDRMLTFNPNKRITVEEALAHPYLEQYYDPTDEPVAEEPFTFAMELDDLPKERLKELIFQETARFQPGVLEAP

Leukotriene C4 synthase = target: T2, Leukotriene C4 synthase (Cavia porcellus, UniProt A6XA80); experiment: biochemical; type: tissue-based, Lung;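 note: enzyme inhibition assay of leukotriene C4 synthase, using LTA4 as the substrate; in other assays of this panel Not Active means under 50% inhibition at 10 µM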
T2 sequence (A6XA80 whole entry): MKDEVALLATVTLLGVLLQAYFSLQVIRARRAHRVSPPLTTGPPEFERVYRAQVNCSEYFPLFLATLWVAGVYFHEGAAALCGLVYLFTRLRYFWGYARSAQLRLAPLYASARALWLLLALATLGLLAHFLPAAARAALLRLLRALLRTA

[5] = target: Epidermal growth factor receptor (Homo sapiens, UniProt P00533); experiment: DRUGMATRIX: Protein Tyrosine Kinase, EGF Receptor enzyme inhibition (substrate: Poly(Glu:Tyr)); type: cell-based, Insect cells; settings: Not Active = under 50% inhibition at 10 µM

Chain of 5-hydroxytryptamine receptor 4 (O70528 whole entry): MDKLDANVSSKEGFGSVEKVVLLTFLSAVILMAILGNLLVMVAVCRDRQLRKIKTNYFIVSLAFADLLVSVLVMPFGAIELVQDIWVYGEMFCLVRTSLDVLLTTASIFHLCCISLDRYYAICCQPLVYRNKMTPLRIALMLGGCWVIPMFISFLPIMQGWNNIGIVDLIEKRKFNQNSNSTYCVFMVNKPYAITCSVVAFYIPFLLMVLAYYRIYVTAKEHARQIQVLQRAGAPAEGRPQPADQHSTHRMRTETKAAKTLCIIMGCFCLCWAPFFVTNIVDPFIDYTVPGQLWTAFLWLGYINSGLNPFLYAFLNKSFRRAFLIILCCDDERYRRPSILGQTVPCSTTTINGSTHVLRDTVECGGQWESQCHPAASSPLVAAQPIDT

Row | Compound | IC50 [1] | IC50 [2] | Ki [2] | IC50 (Substance-P receptor) | IC50 [3] | IC50 [4] | IC50 (Leukotriene C4 synthase) | IC50 ([5]; insect cells) | IC50 ([5]; read-out: IC50) [µM] | Ki [1] | Ki (Substance-P receptor) | Ki [3] | Ki [4] | Ki (Leukotriene C4 synthase) | Ki ([5]; insect cells)
1 | Cc1nnc(NS(=O)(=O)c2ccc(N)cc2)s1 [SULFAMETHIZOLE] | Not Active | Not Active | Not Active | Not Active | Not Active | Not Active | Not Active | Not Active |  |  |  |  |  |  | 
2 | C[C@]12CCC(=O)C[C@@H]1CC[C@@H]1[C@@H]2CC[C@]2(C)[C@@H](O)CC[C@@H]12 [STANOLONE] | Not Active | Not Active | Not Active | Not Active | Not Active | Not Active | Not Active | Not Active |  |  |  |  |  |  | 
3 | CO[C@@]12[C@H](COC(N)=O)C3=C(C(=O)C(C)=C(N)C3=O)N1C[C@@H]1N[C@@H]12 [MITOMYCIN] | Not Active | Not Active | Not Active | Not Active | Not Active | Not Active | Not Active | Not Active |  |  |  |  |  |  | 
4 | Cc1[nH]c(=O)c(C#N)cc1-c1ccncc1 [MILRINONE] | Not Active | Not Active | Not Active | Not Active | Not Active | Not Active | Not Active | Not Active |  |  |  |  |  |  | 
5 | CC(Cl)(Cl)Cl [TRICHLOROETHANE] | Not Active | Not Active | Not Active | Not Active | Not Active | Not Active | Not Active | Not Active |  |  |  |  |  |  | 
6 | CC[C@H](C)C(=O)O[C@H]1CCC=C2C=C[C@H](C)[C@H](CC[C@@H]3C[C@@H](O)CC(=O)O3)[C@H]21 [MEVASTATIN] | Not Active | Not Active | Not Active | Not Active | Not Active | Not Active | Not Active | Not Active |  |  |  |  |  |  | 
7 | CC(=O)O[C@]1(C(C)=O)CC[C@H]2[C@@H]3C[C@H](C)C4=CC(=O)CC[C@]4(C)[C@H]3CC[C@@]21C [MEDROXYPROGESTERONE ACETATE] | Not Active | Not Active | Not Active | Not Active | Not Active | Not Active | Not Active | Not Active |  |  |  |  |  |  | 
8 | CC[C@@]1(O)C(=O)OCc2c1cc1n(c2=O)Cc2cc3c(CN(C)C)c(O)ccc3nc2-1 [TOPOTECAN] | Not Active | Not Active | Not Active | Not Active | Not Active | Not Active | Not Active | Not Active |  |  |  |  |  |  | 
9 | CC#C[C@]1(O)CC[C@H]2[C@@H]3CCC4=CC(=O)CCC4=C3[C@@H](c3ccc(N(C)C)cc3)C[C@@]21C [MIFEPRISTONE] | Not Active | Not Active | Not Active | Not Active | Not Active | Not Active | Not Active | Not Active |  |  |  |  |  |  | 
10 | Cc1cnc(NC(=O)C2=C(O)c3ccccc3S(=O)(=O)N2C)s1 [MELOXICAM] | Not Active | Not Active | Not Active | Not Active | Not Active | Not Active | Not Active | Not Active |  |  |  |  |  |  | 
11 | O=[As][O-].[Na+] [SODIUM ARSENITE] | Not Active | Not Active | Not Active | Not Active | Not Active | Not Active | Not Active | Not Active |  |  |  |  |  |  | 
12 | Cc1cccc(C)c1NC(=O)C(C)N (stereo unspecified) [TOCAINIDE] | Not Active | Not Active | Not Active | Not Active | Not Active | Not Active | Not Active | Not Active |  |  |  |  |  |  | 
13 | CCOC(=O)C1=C(C)NC(C)=C(C(=O)OCC)C1c1ccccc1/C=C/C(=O)OC(C)(C)C [LACIDIPINE] | Not Active | Not Active | Not Active | Not Active | Not Active | Not Active | Not Active | Not Active |  |  |  |  |  |  | 
14 | CC[C@H](C)[C@@H](CO[C@@H](Cc1ccccc1)C(=O)N[C@@H](CCS(C)(=O)=O)C(=O)OC(C)C)NC[C@@H](N)CS | Not Active | Not Active | Not Active | Not Active | Not Active | Not Active | Not Active |  | 3.22 |  |  |  |  |  | 
15 | O=C(c1ccccc1)c1ccc2n1CCC2C(=O)O (stereo unspecified) [KETOROLAC] | Not Active | Not Active | Not Active | Not Active | Not Active | Not Active | Not Active | Not Active |  |  |  |  |  |  | 
16 | O=C(O)c1cc(/N=N/c2ccc(S(=O)(=O)Nc3ccccn3)cc2)ccc1O [SULFASALAZINE] | Not Active | Not Active | Not Active | Not Active | Not Active | Not Active | Not Active | Not Active |  |  |  |  |  |  | 
17 | CC1(C)[C@H](C(=O)O)N2C(=O)C[C@H]2S1(=O)=O [SULBACTAM] | Not Active | Not Active | Not Active | Not Active | Not Active | Not Active | Not Active | Not Active |  |  |  |  |  |  | 
18 | C1CCN2C[C@@H]3C[C@@H](CN4CCCC[C@@H]34)[C@H]2C1 [SPARTEINE] | Not Active | Not Active | Not Active | Not Active | Not Active | Not Active | Not Active | Not Active |  |  |  |  |  |  | 
19 | LEAD(IV) ACETATE | Not Active | Not Active | Not Active | Not Active | Not Active | Not Active | Not Active | Not Active |  | Not Active | Not Active | Not Active | Not Active | Not Active | Not Active
20 | CC(O)C(=O)O (stereo unspecified) [LACTIC ACID] | Not Active | Not Active | Not Active | Not Active | Not Active | Not Active | Not Active | Not Active |  |  |  |  |  |  | 
